# Measurements: paper PMC7824033, “Flavones, Flavonols, and Glycosylated Derivatives—Impact on Candida albicans Growth and Virulence, Expression of CDR1 and ERG11, Cytotoxicity” (Pharmaceuticals, 2020)
# Entries after “also recorded” stand apart in the source; their conditions may differ. Like-named read-outs stand apart in the source and are kept apart here.
# What was measured:
# C. albicans = details: cited from earlier work
# C. albicans 13/15 = test: Microdilution assay, MIC and MFC; assay type: cell-based; details: Candida albicans, C. albicans 13/15, mean ± SD of three replicates; for MFC: read-out: MFC; for MIC: read-out: MIC
# Description: (§1) C. albicans was isolated from oral cavities of patients at ENT Clinic, Clinical Hospital Centre Zvezdara, Belgrade, Serbia after obtaining informed written consent and identified by using CHROMagar plates (Biomerieux, Craponne, France). Strains were maintained on Sabouraud Dextrose Agar (Merck, Darmstadt, Germany) and are deposited at the Mycological Laboratory, Department of Plant Physiology, Institute for Biological Research “Siniša Stanković”, National Institute of Republic of Serbia, University of Belgrade. The collection of samples was approved by the Ethical Committee (Office for Human Research Protection, Zvezdara University Medical Center, Belgrade, Serbia, document issued 26 October 2016).
# (§2) Microdilution assay with some modification was used for determination of minimum inhibitory (MIC) and minimum fungicidal concentrations (MFC). Yeast cultures were adjusted to 1.0 × 10^5 CFU/per well with sterile PBS (Phosphate buffered saline, pH 7.4). The 96-well microtiter plates with serially diluted flavonoids (concentration range 0.3–75 µg/mL) in liquid broth were incubated at 37 °C for 24 h. After incubation, MIC and MFC were determined. The lowest concentrations that were not inducing microscopically observed growth were considered as MIC. For microscopic determination of growth, we used inverted microscope Nikon Eclipse TS2 (Amsterdam, Netherland) and examined the fungal growth in the wells of 96-well microtiter plates compared to the control (untreated yeast cells). MFC values were determined as concentrations without visible growth after serial sub-cultivation of 10 µL of samples at 37 °C for 24 h. Ketoconazole and amphotericin B (SigmaAldrich, Darmstadt, Germany) were used as an antifungal control. The tested flavonoids were obtained from Extrasynthese, Rhone, France.
# C. albicans 10/15 = test: Microdilution assay, MIC and MFC; assay type: cell-based; details: Candida albicans, C. albicans 10/15, mean ± SD of three replicates; for MFC: read-out: MFC; for MIC: read-out: MIC
# Description: as §1, §2
# C. albicans 527/14 = test: Microdilution assay, MIC and MFC; assay type: cell-based; details: Candida albicans, C. albicans 527/14, mean ± SD of three replicates; for MFC: read-out: MFC; for MIC: read-out: MIC
# Description: as §1, §2
# C. albicans 475/15 [1] = test: Microdilution assay, MIC and MFC; assay type: cell-based; details: Candida albicans, C. albicans 475/15, mean ± SD of three replicates; for MFC: read-out: MFC; for MIC: read-out: MIC
# Description: as §1, §2
# S. aureus efflux = system: S. aureus efflux; set-up: method as in PMID 25961825; details: S. aureus; cited from earlier work
# CDR1 [2] = test: Expression of CDR1 (qPCR); assay type: cell-based, Candida albicans; details: treatment with MIC
# Method: Total RNA was isolated as described by Sanglard et al. with some modifications. C. albicans 475/15 was grown with agitation at 30 °C in YEPD until OD540 = 0.4. C. albicans cells were incubated with MIC of compounds in YEPD at 30 °C with agitation for 30 min. Cells were centrifuged (4600 rpm, 4 °C for 5 min (Rotanata 460 R, Hettich, Tuttlingen, Germany)) and the pellet was resuspended in 300 µL of RNA buffer (0.1 M Tris-HCl pH 7.5, 0.1M LiCl, 10mM EDTA, 0.5% SDS). The pellet was homogenized with 200 µL of DEPC treated glass beads and 300 µL of Phenol:Chloroform:Isoamyl Alcohol (Sigma-Aldrich, Darmstadt, Germany) in Precellys Evolution tissue homogenizer (Bertion instruments, Montigny-le-Bretonneux, France) at 4500 rpm for 5 s. After centrifugation (14,000 rpm, 4 °C, 1 min (Universal 32 R, Hettich, Tuttlingen, Germany)) 200 µL of supernatant was vortexed with 250 µL of Phenol:Chloroform:Isoamyl Alcohol for 10 s. Samples were centrifuged (14,000 rpm, 4 °C, 1 min) and 200 µL of supernatant was transferred to new tubes, 400 µL of ice-cold 99% ethanol was added to each tube, and they were kept on dry ice for 10 min. Samples were centrifuged (14,000 rpm, 4 °C, 2 min), pellet was washed with ethanol (70%), left to dry at room temperature, after which it was dissolved in 50 µL of DEPC treated water. Nanodrop (ND-1000, Witec AG, Sursee, Switzerland) was used for determination of concentration and purity of samples. RNA was stored at −80°C.
# Amount of 10 µg RNA was incubated with 5 µL of DNAse buffer and 1 µL of DNAse at 37 °C for 30 min (DNA-free™ DNA Removal Kit, Ambion, Bleiswijk, Netherlands). After addition of DNAse inactivation reagent tubes were kept at room temperature with occasional vortexing for 5 min. Samples were centrifuged (14,000 rpm, 4°C, 2 min) and the concentration and quality of supernatant were analyzed on Nanodrop (ND-1000, Witec AG, Sursee, Switzerland).
# Synthesis of cDNA was done with a Transcriptor High Fidelity cDNA synthesis kit (Roche). RNA (1 µg) was incubated with 60 µM random hexamer primers, in 11.4 µL of total sample volume, at 65 °C for 10 min. The mixture of Transcriptase reaction buffer 5×, Deoxynucleotide mix, DTT, Protector RNAse inhibitor, and Transcriptor High Fidelity Reverse Transcriptase was added to each tube according to manufacturer instructions. Synthesis of cDNA was completed by incubating the mixture at 50 °C for 30 min and 85 °C for 5 min (Peqstar thermocycler, Peqlab, Erlangen, Germany).
# Wells of MicroAmp Fast 96-Well Reaction plate ((0.1 mL), Applied biosystems, Waltham, MA, USA) were incubated with 10 µL of mixture (cDNA, 2× MasterMix, primers, probe (Table 3), and water). Analysis was performed in StepOnePlus Real Time PCR system with relative standard curve method. Expression levels of CDR1 and ERG11 were normalized to expression of ACT1.
# porcine liver cells PLP2 = test: in vitro
# Method: (§3) Preparation of PLP2 cell line was performed with freshly harvested porcine liver supplied from a local slaughter house. Tissues from the liver were washed in Hank’s balanced salt solution comprising 100 U/mL penicillin and 100 μg/mL streptomycin and split into 1 × 1 mm^3 explants. Some of the prepared explants were set in 25 cm^2 tissue flasks in Dulbecco’s modified Eagle’s medium (DMEM) with 10% fetal bovine serum (FBS), 2 mM nonessential amino acids, 100 U/mL penicillin, and […] streptomycin, and incubation was conducted at 37 °C with 5% CO2 in a humidified atmosphere. The fresh medium was added every 2 days. Cultivation of the cells was further conducted with direct observation by the phase contrast microscope every 2–3 days. Before confluence was achieved, cells were subcultured and seeded in 96-well plates at a density of 1.0 × 10^4 cells per well and cultivated in DMEM supplemented with 10% FBS, 100 U/mL penicillin, and 100 μg/mL streptomycin. Previously described Sulforhodamine B assay was used for the determination of cytotoxicity. The obtained results were defined as GI50 values corresponding to the compound concentration that inhibits 50% of the net cell growth. Ellipticine was used as a positive control.
# in vitro = details: pig
# Method: as §3
# [3] = system: HUVE (human umbilical vein endothelial) cells; details: read-out: LC50; cited from earlier work
# [4] = system: TIG-1 (human lung embryonic fibroblasts); details: read-out: LC50; TIG-1 cells; cited from earlier work
# Candida albicans = test: Microdilution assay, MIC (strain not named); assay type: cell-based; details: C. albicans, this study, strain not given, read-out: minimum inhibitory concentration (MIC)
# Description: as §1, §2
# C. albicans biofilm = details: 625–5000 µg/mL; C. albicans ATCC 90028; cited from earlier work
# [5] = system: C. albicans 475/15 hyphal growth; test: Anti-hyphal forming activity; assay type: cell-based, Candida albicans; details: MIC, 4 h, YPD + 10% FBS
# Method: C. albicans 475/15 cells were incubated with MIC of tested compounds in YPD + 10% FBS, at 37 °C, for 4 h. Cells were examined under microscope (Nikon Eclipse TS2, Amsterdam, Netherland) and number of cells, growing in the yeast or hyphal and germ tube formations, was determined. Assay was performed in triplicate and percentage of hyphae was determined.
# 3T3-L1 pre-adipocytes = details: up to 100 μM; cited from earlier work
# C. albicans 475/15 [6] = system: C. albicans 475/15; set-up: method as in PMID 28827996; details: previously published; cited from earlier work
# [7] = system: C. albicans 475/15 biofilm formation; test: Inhibition of biofilm formation (crystal violet); assay type: cell-based, Candida albicans
# Method: Potential of selected compounds to interfere with C. albicans 475/15 biofilm formation was investigated as previously described. Briefly, C. albicans 475/15 was incubated with serial dilution of the compounds (MIC and subMICs) in YPD medium, in 96-well microtiter plates with adhesive bottom (Sarstedt, Nümbrecht, Germany), at 37 °C for 24 h. After incubation, wells were washed twice with sterile PBS and methanol was added into each well. After fixation, methanol was discarded, and the plate was air dried. Formed biofilms were stained with 0.1% crystal violet (Bio-Merieux, Craponne, France) for 30 min. The plate was gently washed under the tap of water and air dried. The stain bound to the remaining biofilms was dissolved with ethanol (96%, Zorka, Šabac, Serbia). Absorbance was read on a Multiskan™ FC Microplate Photometer, Thermo Scientific™. The percentage of inhibition of biofilm formation was calculated by the formula:[(A620control − A620sample)/A620control] × 100
# ERG11 = details: identical assay, previously published; cited from earlier work
# CDR1 [8] = details: identical assay, previously published; cited from earlier work
SMILES,MFC (C. albicans 13/15),MIC (C. albicans 13/15),MFC (C. albicans 10/15),MIC (C. albicans 10/15),MFC (C. albicans 527/14),MIC (C. albicans 527/14),MFC (C. albicans 475/15 [1]),MIC (C. albicans 475/15 [1]),impact on CDR1 expression (CDR1 [2]),GI50 (in vitro),other results
"O=c1cc(-c2ccc(O)c(O)c2)oc2cc(O)cc(O)c12 [Luteolin, luteolin]",75 ± 2 µg/mL,37.5 ± 1 µg/mL,75 ± 2 µg/mL,37.5 ± 1 µg/mL,75 ± 20 µg/mL,37.5 ± 1 µg/mL,75 ± 2 µg/mL,37.5 ± 1 µg/mL,did not exhibit any significant inhibitory potential,> 400 µg/mL,"MIC (C. albicans; clinical isolates and C. albicans 10231): > 83 µg/mL; MIC (C. albicans; different C. albicans strains, ref 13): 3100 µg/mL; MIC (C. albicans; different C. albicans strains, ref 15): > 1000 µg/mL; IC50, efflux inhibition (S. aureus efflux): 75 µg/mL; cytotoxic effect (porcine liver cells PLP2): did not exhibit cytotoxic effect; CC50 [3]: 57 µM; CC50 [4]: 107 µM; MIC (Candida albicans): 37.5 µg/mL; activity towards biofilm (C. albicans biofilm): inefficient"
"O=c1cc(-c2ccc(O)cc2)oc2cc(O[C@@H]3O[C@H](CO)[C@@H](O)[C@H](O)[C@H]3O)cc(O)c12 [Apigetrin, apigetrin]",,,,,,,,,downregulated; also recorded: inhibitory impact; also recorded: lowering CDR1 expression,90 ± 1 µg/mL,"CDR1 expression level, log2FC (CDR1 [2]; 30 min, normalized to ACT1): < −1 log2FC; reduction of hyphal growth (words) [5]: lowest number of cells growing in the hyphal form; also recorded: strongest anti-hyphal potential; cytotoxic effect (porcine liver cells PLP2; PLP2 cells): some cytotoxic effect; cytotoxicity (3T3-L1 pre-adipocytes): does not induce cytotoxicity; MIC (C. albicans 475/15 [6]): 50 µg/mL; antibiofilm activity ([7]; MIC and subMICs): notably lowered; inhibition of biofilm formation ([7]; compound applied at MIC/2): > 60%; reduction of biofilm formation ([7]; concentration not given): more than 50%"
"CC(=O)N1CCN(c2ccc(OCC3COC(Cn4ccnc4)(c4ccc(Cl)cc4Cl)O3)cc2)CC1 (stereo not drawn) [Ketoconazole, reference compound]",50 ± 0.2 µg/mL,1.6 ± 0.2 µg/mL,50 ± 0.1 µg/mL,3.1 ± 0.1 µg/mL,6.2 ± 0.1 µg/mL,3.1 ± 0.1 µg/mL,6.2 ± 0.1 µg/mL,3.1 ± 0.1 µg/mL,,,impact on ERG11 expression (words) (ERG11): lack; impact on CDR1 expression (CDR1 [8]): lack
